Laboratory results: paper PMC11769294, “(E)-1-(3-(3-Hydroxy-4-Methoxyphenyl)-1-(3,4,5-Trimethoxyphenyl)allyl)-1H-1,2,4-Triazole and Related Compounds: Their Synthesis and Biological Evaluation as Novel Antimitotic Agents Targeting Breast Cancer” (Pharmaceuticals, 2025)
Where “and” joins values, the source holds several entries; their conditions need not be identical. Equal values may be shown once. Read-outs that look alike come from different tables or passages of the source.

Key:
leukemia panel = experiment: NCI60 screen (SRB), panel mean; type: cell-based, human; details: one dose 10 µM, 48 h
[1] = tested on: HOP-92 (Non-Small Cell Lung Cancer); experiment: NCI60 screen (SRB); type: cell-based, human; details: 48 h; for growth percent: one dose 10 µM
SR (Leukemia) = experiment: NCI60 screen (SRB); type: cell-based, human; details: 48 h; for growth percent: one dose 10 µM
[2] = tested on: MCF-7 breast cancer cells; experiment: alamarBlue cell viability assay; type: cell-based; details: Homo sapiens, MCF7, MCF-7
Experimental: Figure 5 Preliminary cell viability data for Series 1: (A) compounds 22a–22g and chalcone 20b and Series 2: (B) compounds 23a–e and chalcone 20b in MCF-7 breast cancer cells. Cell proliferation of MCF-7 cells was determined with an alamarBlue assay (seeding density 2.5 × 10^4 cells/mL per well for 96-well plates). Compound concentrations of either 1 or 0.1 μM for 72 h were used to treat the cells (in triplicate) with control wells containing vehicle ethanol (1% v/v). The mean value ± SEM for three independent experiments is shown. The positive controls used are CA-4 and phenstatin (1.0 μM and 0.1 μM). Statistical analysis was performed using One-way ANOVA with the Sidak multiple comparison test (***, p < 0.001).
HL-60 cells were suspension cells and the seeding density for the viability assay was 25,000 cells/mL. MCF-7 cells (adherent) were cultured in Minimum Essential Media (MEM) with GlutaMAX™-I, supplemented with 1% (v/v) non-essential amino acids, 10% (v/v) fetal bovine serum (FBS), purchased from BD Biosciences (Edmund Halley Road, Oxford, UK), and 1% (v/v) penicillin/streptomycin 5000 U/mL. The MCF-7 cells used in the screening of the compounds during these experiments were mycoplasma-free. The seeding density of MCF-7 in the viability assay was 25,000 cells/mL and 50,000 cells/mL in the FACS assay. Normal breast cells (MCF-10A) (adherent) were cultured in Dulbecco’s Modified Eagle Medium: Nutrient Mixture F-12 (DMEM/F12; Gibco) supplemented with 5% horse serum (Invitrogen, Waltham, MA, USA), 20 ng/mL epidermal growth factor (Merck Millipore, Burlington, MA, USA), 0.5 μg/mL hydrocortisone (Sigma, Kanagawa, Japan), 100 ng/mL cholera toxin (Sigma), 10 μg/mL insulin (Sigma), and penicillin/streptomycin 5000 U/mL (1%) (Gibco, Waltham, MA, USA). […] MDA-MB-231 cells were cultured in Dulbecco’s Modified Eagle Medium, which was supplemented with 10% (v/v) fetal bovine serum (FBS) and 1% (v/v) penicillin/streptomycin 5000 U/mL. When not in use, all cells were kept in liquid nitrogen and frozen in a freezing media made of 90% FBS and 10% DMSO. All cells were grown in an atmosphere of 5% CO2/95% air in T75 culture flasks. The media was changed every 2–3 days and media was always prewarmed to 37 °C. All were sub-cultured every 3–4 days by trypsinization using TrypLE™ Express enzyme when confluence was reached to allow growth, prevent excessive cell death, and minimize the risk of infections derived by over-confluence. For the cell viability assay, the number of cells per milliliter was 25,000 cells/mL while the FACS assay utilized 50,000 cells/mL. Cells were maintained at 37 °C in 5% CO2 in a humidified incubator.
The biochemical assays were performed in triplicate and on at least three independent occasions to facilitate the determination of mean values. For the viability assay, cells were grown until 80% confluent. Adherent cells such as MCF-7, MDA-MB-231, and MCF-10A were trypsinized to detach them from the flask, counted as previously described, and seeded in 96 well plates with a seeding density of 25,000 cells /mL (200 µL of suspension in each well so that the final number of cells per well was 5000) and 1 × 10^4 cells/well seeding density for suspension HL-60 cells. Adherent cells were incubated for 24 h after being seeded in the 96 well plate and treated on the following day, while suspension cells were treated on the same day of the seeding. In both cases, the incubation time after the treatment with the drug was 72 h. After 68 h incubation, the AlamarBlue was added (20 µL in each well) and the incubation time was completed. After 72 h, the change in color was measured by spectrofluorimetry at an excitation wavelength of 544 nm and emission wavelength of 590 nm. AlamarBlue is a cell viability indicator containing a compound called resazurin. AlamarBlue is water soluble, stable in culture media, non-toxic, and is permeable through the cell membrane. […]

T-47D (Breast Cancer) = experiment: NCI60 screen (SRB); type: cell-based, human; details: 48 h; for growth percent: one dose 10 µM
CAKI-1 (Renal Cancer) = experiment: NCI60 screen (SRB); type: cell-based, human; details: 48 h; for growth percent: one dose 10 µM
SW-620 (Colon Cancer) = experiment: NCI60 screen (SRB); type: cell-based, human; details: for GI50: five-dose; for growth percent: one dose 10 µM
HL-60 (TB) (Leukemia) = experiment: NCI60 screen (SRB); type: cell-based, human; details: for GI50: HL-60(TB), five-dose; for growth percent: HL-60 (TB), one dose 10 µM
SK-OV-3 (Ovarian Cancer) = experiment: NCI60 screen (SRB); type: cell-based, human; details: 48 h; for growth percent: one dose 10 µM
MALME-3M (Melanoma) = experiment: NCI60 screen (SRB); type: cell-based, human; details: 48 h; for growth percent: one dose 10 µM
[3] = tested on: NCI-H322M (Non-Small Cell Lung Cancer); experiment: NCI60 screen (SRB); type: cell-based, human; details: 48 h; for growth percent: one dose 10 µM
[4] = tested on: NCI-H226 (Non-Small Cell Lung Cancer); experiment: NCI60 screen (SRB); type: cell-based, human; details: 48 h; for growth percent: one dose 10 µM
SF-268 (CNS Cancer) = experiment: NCI60 screen (SRB); type: cell-based, human; details: 48 h; for growth percent: one dose 10 µM
BT-549 (Breast Cancer) = experiment: NCI60 screen (SRB); type: cell-based, human; details: for GI50: five-dose; for growth percent: one dose 10 µM
[5] = tested on: MDA-MB-231/ATCC (Breast Cancer); experiment: NCI60 screen (SRB); type: cell-based, human; details: 48 h; for growth percent: one dose 10 µM
MCF7 (Breast Cancer) = experiment: NCI60 screen (SRB); type: cell-based, human; details: 48 h; for growth percent: one dose 10 µM
MDA-MB-435 (Melanoma) = experiment: NCI60 screen (SRB); type: cell-based, human; details: 48 h; for growth percent: one dose 10 µM
TK-10 (Renal Cancer) = experiment: NCI60 screen (SRB); type: cell-based, human; details: 48 h; for growth percent: one dose 10 µM
MOLT-4 (Leukemia) = experiment: NCI60 screen (SRB); type: cell-based, human; details: one dose 10 µM, 48 h
[6] = Homo sapiens, five-dose, read-out: IC50 (cell marked * in GI50 column)

COc1ccc(/C=C/C(c2cc(OC)c(OC)c(OC)c2)n2cncn2)cc1O (stereo not drawn) [Compound 22b, (E)-5-(3-(1H-1,2,4-Triazol-1-yl)-3-(3,4,5-trimethoxyphenyl)prop-1-en-1-yl)-2-methoxyphenol]
mean growth percentage (leukemia panel): 4.2%
GI50 ([1]; Homo sapiens, five-dose): 67 µM
growth percent [1]: 47.98%
GI50 (SR (Leukemia); Homo sapiens, five-dose): 24.8 nM
growth percent (SR (Leukemia)): 5.67%
IC50 [2]: 390 nM
viability at 0.5 µM ([2]; 0.5 μM, 72 h, Figure 9C): 70%
viability at 1 µM ([2]; 72 h, Figure 9C, read-out: cell viability): 30%
viability at 1 µM ([2]; 72 h, read-out: viable cells): 40%
viability at 10 µM ([2]; 10 μM, 72 h, Figure 9C): 20%
IC50 ([2]; 72 h): 385 ± 120 nM
GI50 (T-47D (Breast Cancer); Homo sapiens, T47D, five-dose): > 100 µM
growth percent (T-47D (Breast Cancer)): 34.38%
GI50 (CAKI-1 (Renal Cancer); Homo sapiens, five-dose): 2830 nM
growth percent (CAKI-1 (Renal Cancer)): 34.50%
GI50 (SW-620 (Colon Cancer); Homo sapiens, SW-620, 48 h): 39 nM
GI50 (SW-620 (Colon Cancer); 48 h): 39.4 nM
growth percent (SW-620 (Colon Cancer); 48 h): 27.62%
GI50 (HL-60 (TB) (Leukemia); 48 h): 24.5 nM
growth percent (HL-60 (TB) (Leukemia); 48 h): −36.28%
GI50 (HL-60 (TB) (Leukemia); Homo sapiens, HL-60, 48 h): 24 nM
IC50 (SK-OV-3 (Ovarian Cancer); [6]): > 100 µM
growth percent (SK-OV-3 (Ovarian Cancer)): 12.67%
IC50 (MALME-3M (Melanoma); [6]): > 100 µM
growth percent (MALME-3M (Melanoma)): 54.35%
IC50 [3, 6]: > 100 µM
growth percent [3]: 54.65%
GI50 ([4]; Homo sapiens, five-dose): 5.93 µM
growth percent [4]: 62.21%
GI50 (SF-268 (CNS Cancer); Homo sapiens, five-dose): 58.9 nM
growth percent (SF-268 (CNS Cancer)): 54.09%
GI50 (BT-549 (Breast Cancer); Homo sapiens, BT-549, 48 h): 71 nM
GI50 (BT-549 (Breast Cancer); 48 h): 71.2 nM
growth percent (BT-549 (Breast Cancer); 48 h): 36.59%
GI50 ([5]; Homo sapiens, five-dose): 3.02 µM
GI50 (MCF7 (Breast Cancer); Homo sapiens, five-dose): 33 nM
growth percent (MCF7 (Breast Cancer)): 21.2% and 21.22%
GI50 (MDA-MB-435 (Melanoma); Homo sapiens, five-dose): 18.3 nM
growth percent (MDA-MB-435 (Melanoma)): −32.99%
GI50 (TK-10 (Renal Cancer); Homo sapiens, five-dose): 21.2 µM
growth percent (TK-10 (Renal Cancer)): 41.24%
growth percent (MOLT-4 (Leukemia)): 21.84%

COc1ccc(/C=C/C(c2cc(OC)c(OC)c(OC)c2)n2ccnc2)cc1O (stereo not drawn) [Compound 23b, (E)-5-(3-(1H-Imidazol-1-yl)-3-(3,4,5-trimethoxyphenyl)prop-1-en-1-yl)-2-methoxyphenol]
mean growth percentage (leukemia panel): 11.2%
growth percent [1]: 30.49%
growth percent (SR (Leukemia)): 6.18%
viability at 0.1 µM ([2]; 0.1 μM, 72 h, read-out: viable cells): 75%
viability at 1 µM ([2]; 72 h, read-out: viable cells): 74%
growth percent (T-47D (Breast Cancer)): 40.62%
growth percent (CAKI-1 (Renal Cancer)): 60.21%
growth percent (SW-620 (Colon Cancer); 48 h): 17.41%
growth percent (HL-60 (TB) (Leukemia); 48 h): −36.59%
growth percent (SK-OV-3 (Ovarian Cancer)): 33.54%
growth percent (MALME-3M (Melanoma)): 57.72%
growth percent [3]: 45.84%
growth percent [4]: 88.36%
growth percent (SF-268 (CNS Cancer)): 56.10%
growth percent (BT-549 (Breast Cancer); 48 h): 44.34%
growth percent [5]: 53.0% and 52.97%
growth percent (MCF7 (Breast Cancer)): 17.9% and 17.87%
growth percent (MDA-MB-435 (Melanoma)): −25.56%
growth percent (TK-10 (Renal Cancer)): 84.45%
growth percent (MOLT-4 (Leukemia)): 31.88%

COc1cc(/C=C/C(/C=C/c2cc(OC)c(OC)c(OC)c2)n2ccnc2)cc(OC)c1OC [Compound 30, 1-((1E,4E)-1,5-bis(3,4,5-trimethoxyphenyl)penta-1,4-dien-3-yl)-1H-imidazole]
mean growth percentage (leukemia panel): 60.5%
growth percent [1]: 56.24%
growth percent (SR (Leukemia)): 31.50%
viability at 1 µM ([2]; 72 h, read-out: viable cells): 77%
growth percent (T-47D (Breast Cancer)): 77.54%
growth percent (SW-620 (Colon Cancer); 48 h): 88.00%
growth percent (HL-60 (TB) (Leukemia); 48 h): 70.60%
growth percent (SK-OV-3 (Ovarian Cancer)): 92.06%
growth percent (MALME-3M (Melanoma)): 93.80%
growth percent [3]: 96.68%
growth percent [4]: 84.81%
growth percent (SF-268 (CNS Cancer)): 91.93%
growth percent (BT-549 (Breast Cancer); 48 h): 83.42%
growth percent [5]: 76.21%
growth percent (MCF7 (Breast Cancer)): 57.42%
growth percent (MDA-MB-435 (Melanoma)): 45.63%
growth percent (TK-10 (Renal Cancer)): 115.50%
growth percent (MOLT-4 (Leukemia)): 74.07%

COc1ccc(/C=C/C(c2cc(OC)c(OC)c(OC)c2)n2cncn2)cc1 (stereo not drawn) [Compound 22a, (E)-1-(3-(4-Methoxyphenyl)-1-(3,4,5-trimethoxyphenyl)allyl)-1H-1,2,4-triazole]
mean growth percentage (leukemia panel): 24.0%
growth percent [1]: 40.32%
growth percent (SR (Leukemia)): 18.93%
viability at 1 µM ([2]; 72 h, read-out: viable cells): 60%
growth percent (T-47D (Breast Cancer)): 30.79%
growth percent (CAKI-1 (Renal Cancer)): 51.61%
growth percent (SW-620 (Colon Cancer); 48 h): 26.63%
growth percent (HL-60 (TB) (Leukemia); 48 h): −17.94%
growth percent (SK-OV-3 (Ovarian Cancer)): 35.55%
growth percent (MALME-3M (Melanoma)): 61.34%
growth percent [3]: 61.24%
growth percent [4]: 75.97%
growth percent (SF-268 (CNS Cancer)): 57.07%
growth percent (BT-549 (Breast Cancer); 48 h): 45.45%
growth percent [5]: 50.05%
growth percent (MCF7 (Breast Cancer)): 22.5% and 22.48%
growth percent (MDA-MB-435 (Melanoma)): −9.62%
growth percent (TK-10 (Renal Cancer)): 48.52%
growth percent (MOLT-4 (Leukemia)): 39.43%

COc1ccc(C2CC(n3ccnc3)c3cc(OC)c(OC)c(OC)c32)cc1O (stereo not drawn) [Compound 27a, 5-(3-(1H-Imidazol-1-yl)-5,6,7-trimethoxy-2,3-dihydro-1H-inden-1-yl)-2-methoxyphenol]
mean growth percentage (leukemia panel): 73.2%
growth percent [1]: 59.58%
growth percent (SR (Leukemia)): 35.42%
growth percent (T-47D (Breast Cancer)): 94.34%
growth percent (CAKI-1 (Renal Cancer)): 74.50%
growth percent (SW-620 (Colon Cancer); 48 h): 62.47%
growth percent (HL-60 (TB) (Leukemia); 48 h): 83.57%
growth percent (SK-OV-3 (Ovarian Cancer)): 86.31%
growth percent (MALME-3M (Melanoma)): 73.18%
growth percent [3]: 101.51%
growth percent [4]: 97.37%
growth percent (SF-268 (CNS Cancer)): 89.96%
growth percent (BT-549 (Breast Cancer); 48 h): 90.36%
growth percent [5]: 81.01%
growth percent (MCF7 (Breast Cancer)): 44.8% and 44.77%
growth percent (MDA-MB-435 (Melanoma)): 5.00%
growth percent (TK-10 (Renal Cancer)): 101.23%
growth percent (MOLT-4 (Leukemia)): 90.04%
